Patent US20260137773A1 (priority 2022, published 2026)

Tests used:
[1] = test system: 4T1 mouse mammary gland carcinoma; type: in vivo; conditions: data not shown
[2] = healthy volunteers; cited from earlier work
[3] = test system: complement activation; conditions: higher than Factor H; cited from earlier work

Versikine
tumor size, Versikine assessed alone [1]: did not significantly reduced tumor size

CC[C@H](C(=O)N1CCCC[C@H]1C(=O)O[C@H](CCc1ccc(OC)c(OC)c1)c1cccc(OCC(=O)NCCNC(=O)COc2cccc([C@@H](CCc3ccc(OC)c(OC)c3)OC(=O)[C@@H]3CCCCN3C(=O)[C@@H](CC)c3cc(OC)c(OC)c(OC)c3)c2)c1)c1cc(OC)c(OC)c(OC)c1 [AP1903]
safety [2]: proven safe

B1: miniFH (protein)
chain: EDCNELPPRRNTEILTGSWSDQTYPEGTQAIYKCRPGYRSLGNVIMVCRKGEWVALNPLRKCQKRPCGHPGDTPFGTFTLTGGNVFEYGVKAVYTCNEGYQLLGEINYRECDTDGWTNDIPICEVVKCLPVTAPENGKIVSSAMEPDREYHFGQAVRFVCNSGYKIEGDEEMHCSDDGFWSKEKPKCVEISCKSPDVINGSPISQKIIYKENERFQYKCNMGYEYSERGDAVCTESGWRPLPSCEEKSCDNPYIPNGDYSPLRIKHRTGDEITYQCRNGFYPATRGNTAKCTSTGWIPAPRCTSGSGGGGVDTTSCVNPPTVQNAYIVSRQMSKYPSGERVRYQCRSPYEMFGDEEVMCLNGNWTEPPQCKDSTGKCGPPPPIDNGDITSFPLSVYAPASSVEYQCQNLYQLEGNKRITCRNGQWSEPPKCLHPCVISREIMENYNIALRWTAKQKLYSRTGESVEFVCKRGYRLSSRSHTLRTTCWDGKLEYPTCAKR
modifications: REGION 1..499: note = miniFH POLYPEPTIDE
ex vivo potency to inhibit complement activation compared with FH [3]: ~10 fold
